Tests used:
[1] = molecular target: T1, Recombinant human p38α (MKK6-activated) (Homo sapiens, UniProt Q16539); assay: Time-resolved fluorescence resonance energy transfer (TR-FRET) kinase assay (standard or low volume); type: biochemical; set-up: key: Compounds are considered active in this assay if they demonstrate a pIC50 of greater than 4.6 up to about a pIC50 of greater than 10.0; conditions: MKK6-activated p38α 100 pM, GST-ATF2 400 nM, 120 minutes at room temperature; either assay format
T1 construct: His; made in house
T1 sequence (Q16539 whole entry): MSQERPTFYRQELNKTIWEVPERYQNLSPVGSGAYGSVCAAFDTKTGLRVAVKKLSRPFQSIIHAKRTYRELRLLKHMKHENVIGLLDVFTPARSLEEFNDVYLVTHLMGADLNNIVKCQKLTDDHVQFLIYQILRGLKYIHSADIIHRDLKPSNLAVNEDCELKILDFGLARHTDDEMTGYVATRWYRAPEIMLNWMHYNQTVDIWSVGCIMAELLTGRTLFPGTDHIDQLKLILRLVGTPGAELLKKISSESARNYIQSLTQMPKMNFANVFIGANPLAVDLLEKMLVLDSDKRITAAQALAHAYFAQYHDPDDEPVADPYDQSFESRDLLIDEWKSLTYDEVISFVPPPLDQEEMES

[2] = system: influx of neutrophils to the lung in LPS-challenged rats; assay: Rat LPS neutrophilia model; type: in vivo; conditions: intratracheal, LPS aerosol 100 ug/ml 15 min, lavage 4 hours later, in at least one of the range of conditions tested, significant p<0.05, nonsignificant p>0.05
In short: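 Compound was given intratracheally (200 ul, suspension or dry powder) 15 min–24 hours before a 15 min aerosol of LPS (100 ug/ml). Bronchoalveolar lavage was taken 4 hours after challenge for differential cell counts. Values are % inhibition of neutrophils versus no-compound controls at a given concentration and pretreat time.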

[3] = system: synthesis of IL-6, IL-8, GM-CSF, RANTES and COX-2; conditions: a number of different cell types; cited from earlier work
[4] = system: TGF-β-induced increases in fibronectin and thrombospondin; conditions: cited from earlier work

Compound	melting point	decreasing the synthesis of pro-inflammatory proteins including IL-6, IL-8, GM-CSF, RANTES and COX-2 [3]	further results
Cc1c(F)cc(C(=O)NC2CC2)cc1-c1nc(NC(CO)CO)nc2c1ccc(=O)n2-c1c(F)cccc1F [18(e)]	214.2 to 217.5 °C	–	pIC50, reported as active [1]: active
CCCNC(=O)c1ccc(C)c(-c2nc(NCCN(C)C)nc3c2ccc(=O)n3-c2c(F)cccc2F)c1 [Example 105, 3-(8-(2,6-difluorophenyl)-2-{[2-(dimethylamino)ethyl]amino}-7-oxo-7,8-dihydropyrido[2,3-d]pyrimidin-4-yl)-4-methyl-N-propylbenzamide]	139 to 142 °C	–	inhibition of neutrophilia (neutrophil levels in lung lavage relative to no compound controls) [2]: statistically significant inhibition
C[S+]([O-])c1ccc(-c2nc(-c3ccncc3)c(-c3ccc(F)cc3)[nH]2)cc1 (stereo not shown) [SB-203580]	–	effective	–
COc1nccc(-c2c(-c3ccc(F)cc3)ncn2C2CCNCC2)n1 [SB-242235]	–	–	effect on TGF-β-induced increases in fibronectin and thrombospondin [4]: inhibited
Fc1ccc(-c2nc3n(c2-c2ccncc2)CCS3)cc1 [SK&F 86002]	–	effective	–

From patent publication US8207176B2 (Glaxo Group Limited, priority 2005, dated 2012)
